Source: patent US20100029615A1, “BENZIMIDAZOLE DERIVATIVES” (priority 2006, published 2010)

Molecular target: T1, SMO (Mus musculus, UniProt P56726)
T1 construct: endogenous in cells; host or cells: C3H10T1/2 (ATCC #CCL-226)
Assay: Smoothened (SMO)/Sonic Hedgehog (SHh) Transient Transcriptional Activation Assay (Gli-luciferase reporter in C3H10T1/2 cells)
Format: cell-based, murine
Details: 2 uM test compound, SHh 250 ng/ml, 20 hrs
In short: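 C3H10T1/2 cells transiently transfected with a 10× murine Gli-responsive firefly luciferase reporter plus pEGFP, serum-starved 20 h in 0.5% calf serum, then treated with compounds (2 uM–2 nM final) and 250 ng/ml recombinant human SHh for 20 h at 37 °C. Read-out: Dual-Glo luminescence.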

T1 sequence (P56726 33-793): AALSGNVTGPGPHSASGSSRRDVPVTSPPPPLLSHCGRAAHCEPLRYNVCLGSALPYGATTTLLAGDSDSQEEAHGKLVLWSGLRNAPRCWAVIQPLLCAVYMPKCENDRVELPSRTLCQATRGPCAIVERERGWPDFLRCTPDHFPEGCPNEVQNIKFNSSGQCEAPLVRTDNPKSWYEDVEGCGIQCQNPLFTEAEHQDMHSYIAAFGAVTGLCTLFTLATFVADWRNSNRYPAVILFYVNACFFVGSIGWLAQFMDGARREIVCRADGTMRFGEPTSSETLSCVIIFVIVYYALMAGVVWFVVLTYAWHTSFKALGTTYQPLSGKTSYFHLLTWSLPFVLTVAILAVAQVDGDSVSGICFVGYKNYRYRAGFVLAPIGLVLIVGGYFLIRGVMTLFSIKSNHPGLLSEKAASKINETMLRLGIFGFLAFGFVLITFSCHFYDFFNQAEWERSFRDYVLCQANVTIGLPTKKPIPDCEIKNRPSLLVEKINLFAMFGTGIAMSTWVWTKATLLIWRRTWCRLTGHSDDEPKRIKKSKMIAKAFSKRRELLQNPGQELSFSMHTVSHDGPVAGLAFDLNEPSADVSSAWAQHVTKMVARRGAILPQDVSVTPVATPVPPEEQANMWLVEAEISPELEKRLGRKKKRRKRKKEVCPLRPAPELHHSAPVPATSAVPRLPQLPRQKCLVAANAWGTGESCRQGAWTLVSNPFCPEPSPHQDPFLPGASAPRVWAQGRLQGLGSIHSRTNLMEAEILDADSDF

N-(3-(1-Methyl-6-(morpholinomethyl)-1H-benzo[d]imidazol-2-yl]cyclohexyl)-2,3-dihydrobenzo[b][1,4]dioxine-6-carboxamide and N-(3-(1-Methyl-5-(morpholinomethyl)-1H-benzo[d]imidazol-2-yl]cyclohexyl)-2,3-dihydrobenzo[b][1,4]dioxine-6-carboxamide [Example 37]
SMO % inhibition at 2 uM: 88%

N-(3-(5-(Aminomethyl)-1-methyl-1H-benzo[d]imidazol-2-yl)cyclohexyl)-3,5-dimethoxybenzamide and N-(3-(6-(aminomethyl)-1-methyl-1H-benzo[d]imidazol-2-yl)cyclohexyl)-3,5-dimethoxybenzamide [Example 23]
SMO % inhibition at 2 uM: 104%

N-(3-(5-Bromo-1-methyl-1H-benzo[d]imidazol-2-yl)cyclohexyl)-3,5-dimethoxybenzamide and N-(3-(6-bromo-1-methyl-1H-benzo[d]imidazol-2-yl)cyclohexyl)-3,5-dimethoxybenzamide [Example 18]
SMO % inhibition at 2 uM: 107%

N-(3-(5-Cyano-1-methyl-1H-benzo[d]imidazol-2-yl)cyclohexyl]-2,3-dihydrobenzo[b][1,4]dioxine-6-carboxamide and N-(3-(6-Cyano-1-methyl-1H-benzo[d]imidazol-2-yl)cyclohexyl]-2,3-dihydrobenzo[b][1,4]dioxine-6-carboxamide [Example 20]
SMO % inhibition at 2 uM: 103%

N-(3-(6-(2-Cyanopropan-2-yl)-1-methyl-1H-benzo[d]imidazol-2-yl)cyclohexyl)-2,3-dihydrobenzo[b)[1,4]dioxine-6-carboxamide and N-(3-(5-(2-cyanopropan-2-yl)-1-methyl-1H-benzo[d]imidazol-2-yl)cyclohexyl)-2,3-dihydrobenzo[b][1,4]dioxine-6-carboxamide [Example 36]
SMO % inhibition at 2 uM: 93%

N-(3-(6-(2-Hydroxypropan-2-yl)-1-methyl-1H-benzo[d]imidazol-2-yl)cyclohexyl)-2,3-dihydrobenzo[b][1,4]dioxine-6-carboxamide and N-(3-(5-(2-Hydroxypropan-2-yl)-1-methyl-1H-benzo[d]imidazol-2-yl)cyclohexyl)-2,3-dihydrobenzo[b][1,4]dioxine-6-carboxamide [Example 31]
SMO % inhibition at 2 uM: 97%

N-(3-(6-((2-Methoxyethylamino)methyl)-1-methyl-1H-benzo[d]imidazol-2-yl)cyclohexyl)-2,3-dihydrobenzo[b][1,4]dioxine-6-carboxamide and N-(3-(5-((2-methoxyethylamino)methyl)-1-methyl-1H-benzo[d]imidazol-2-yl)cyclohexyl)-2,3-dihydrobenzo[b][1,4]dioxine-6-carboxamide [Example 38]
SMO % inhibition at 2 uM: 103%

N-(3-(6-((Dimethylamino)methyl]-1-methyl-1H-benzo[d]imidazol-2-yl)cyclohexyl)-2,3-dihydrobenzo[b][1,4]dioxine-6-carboxamide and N-(3-(5-((Dimethylamino)methyl]-1-methyl-1H-benzo[d]imidazol-2-yl)cyclohexyl)-2,3-dihydrobenzo[b][1,4]dioxine-6-carboxamide [Example 34]
SMO % inhibition at 2 uM: 96%

N-(3-(6-(Cyanomethyl)-1-methyl-1H-benzo[d]imidazol-2-yl)cyclohexyl)-2,3-dihydrobenzo[b][1,4]dioxine-6-carboxamide and N-(3-(5-(Cyanomethyl)-1-methyl-1H-benzo[d]imidazol-2-yl)cyclohexyl)-2,3-dihydrobenzo[b][1,4]dioxine-6-carboxamide [Example 35]
SMO % inhibition at 2 uM: 106%

N-(3-(6-(Hydroxymethyl)-1-methyl-1H-benzo[d]imidazol-2-yl)cyclohexyl)-2,3-dihydrobenzo[b][1,4]dioxine-6-carboxamide and N-(3-(5-(Hydroxymethyl)-1-methyl-1H-benzo[d]imidazol-2-yl)cyclohexyl)-2,3-dihydrobenzo[b][1,4]dioxine-6-carboxamide [Example 30]
SMO % inhibition at 2 uM: 104%

N-(3-(6-(Methoxymethyl)-1-methyl-1H-benzo[d]imidazol-2-yl]cyclohexyl)-2,3-dihydrobenzo[b][1,4]dioxine-6-carboxamide and N-(3-(6-(Methoxymethyl)-1-methyl-1H-benzo[d]imidazol-2-yl]cyclohexyl)-2,3-dihydrobenzo[b][1,4]dioxine-6-carboxamide [Example 33]
SMO % inhibition at 2 uM: 102%

N-(3-(6-Isopropyl-1-methyl-1H-benzo[d]imidazol-2-yl)cyclohexyl)-2,3-dihydrobenzo[b][1,4]dioxine-6-carboxamide and N-(3-(5-isopropyl-1-methyl-1H-benzo[d]imidazol-2-yl)cyclohexyl)-2,3-dihydrobenzo[b][1,4]dioxine-6-carboxamide [Example 32]
SMO % inhibition at 2 uM: 81%

N-((1R,3R)-3-(1H-benzo[d]imidazol-2-yl)cyclohexyl)-3-oxo-3,4-dihydro-2H-benzo[b][1,4]oxazine-6-carboxamide and N-((1S,3S)-3-(1H-benzo[d]imidazol-2-yl)cyclohexyl)-3-oxo-3,4-dihydro-2H-benzo[b][1,4]oxazine-6-carboxamide [Example 48]
SMO % inhibition at 2 uM: 80%

N-((1R,3R)-3-(5-Methoxy-1H-benzo[d]imidazol-2-yl)cyclohexyl)-2,3-dihydrobenzo[b][1,4]dioxine-6-carboxamide and N-((1S,3S)-3-(5-methoxy-1H-benzo[d]imidazol-2-yl)cyclohexyl)-2,3-dihydrobenzo[b][1,4]dioxine-6-carboxamide [Example 49]
SMO % inhibition at 2 uM: 92%

N-((1R,3S)-3-(1H-benzo[d]imidazol-2-yl)cyclohexyl]-2,3-dihydrobenzo[b][1,4]dioxine-6-carboxamide and N-((1S,3R)-3-(1H-benzo[d]imidazol-2-yl)cyclohexyl)-2,3-dihydrobenzo[b][1,4]dioxine-6-carboxamide [Example 2]
SMO % inhibition at 2 uM: 84%
